Patent publication US6468472B1 (priority 1999, dated 2002)
Like-named read-outs stand apart in the source and are kept apart here.

Experiments:
[1] = Peracetic acid stability versus pH; assay type: physicochemical; settings: acetic acid buffer at pH 5.0-5.8
Bacillus subtilis spores = settings: cited from earlier work
[2] = second-order dependence on peracetic acid concentration (Yuan et al.); cited from earlier work
[3] = system: pathogenic microorganisms; settings: cited from earlier work; for minimum effective concentration for high-level disinfection: 20° C.

Structure (SMILES) | amount which can be stably maintained [1] | time for killing all Bacillus subtilis spores (Bacillus subtilis spores; PAA at 0.013 m/l (0.10% w/v), pH 5.0) | time for killing all Bacillus subtilis spores (Bacillus subtilis spores; PAA at 0.013 m/l (0.10% w/v), pH 8.0) | reduction in sporicidal rate of kill activity between pH 8.0 and pH 5.0 (Bacillus subtilis spores; PAA at 0.13-0.38 m/l (0.99-2.89% w/v)) | decrease of sporicidal activity between pH 2.6 and pH 8.0 (factor) (Bacillus subtilis spores; work of Baldry) | increase in sporicidal kill time at pH 8.0 versus 5.0 (Bacillus subtilis spores; work of Baldry) | increase in kill time at pH 2.6 versus pH 5.0 (Bacillus subtilis spores; work of Baldry, possible factor) | pH of maximum decomposition rate [2] | minimum effective concentration for high-level disinfection ([3]; 25 min, Peract) | minimum effective concentration for high level disinfection in a short time interval or sterilization over a longer soak period [3] | time for killing all Bacillus subtilis spores (Bacillus subtilis spores; pH 5) | time for killing all Bacillus subtilis spores (Bacillus subtilis spores; pH 8) | minimum effective concentration for high-level disinfection ([3]; 30 min, Sporox)
CC(=O)OO [PAA, peracetic acid] | less than 700 ppm | 1 h | > 6 h | did not show a reduction | 3-10 times | 6 times | 2 times | 8.2 | 0.05% | 500 ppm |  |  | 
OO [Formulation H2O2, hydrogen peroxide] |  |  |  |  |  |  |  |  |  |  | 3 h | 6 h | 6.0%
